From US20080280953A1, “Agents Used for the Treatment of Seeds” (Bayer Cropscience AG, priority 2004, published 2008)

Columns and labels:
Type in all cases: in vivo
[1] = test system: green peach aphid (Myzus persicae); experiment: Myzus test (spray treatment), Chinese cabbage leaf sections; settings: for pest or weed control at 500 g/ha: Myzus persicae, 120 h, after 5 d, read-out: Death rate in % after 5 d; for activity after 5 days: 500 g/ha
Method: (§1) To prepare a suitable active compound preparation 1 part by weight of the active compound is mixed with the given amount of solvent and emulsifier and the concentrate is diluted to the desired concentration with water containing emulsifier.
Chinese cabbage leaf sections (Brassica pekinensis) infested with all stages of the green peach aphid (Myzus persicae) are sprayed with an active compound preparation at the desired concentration.
After the desired time the activity in % is determined. Here 100% means that all aphids were killed; 0% means that no aphids were killed.

[2] = test system: larvae of the mustard leaf beetle (Phaedon cochleariae); experiment: Phaedon cochleariae test (spray treatment); settings: 500 g/ha
Method: [table] To prepare a suitable active compound preparation 1 part by weight of the active compound is mixed with the given amount of solvent and emulsifier and the concentrate is diluted to the desired concentration with water containing emulsifier. Chinese cabbage leaf sections (Brassica pekinensis) are sprayed with an active compound preparation at the desired concentration and after drying are infected with larvae of the mustard leaf beetle (Phaedon cochleariae). After the desired time the activity in % is determined.

[3] = test system: cotton aphid (Aphis gossypii); experiment: Aphis gossypii test, immersion of cotton leaves; settings: 100 g/ha (so in the source), cotton leaves immersed
Method: as §1
Cotton plant leaves (Gossypium hirsutum) heavily infected with the cotton aphid (Aphis gossypii) are treated by immersing in the active compound preparation at the desired concentration. After the desired time the death rate in % is determined. Here 100% means that all aphids were killed; 0% means that no aphids were killed.

[4] = test system: caterpillars of the fall army worm (Spodoptera frugiperda); experiment: Spodoptera frugiperda test (spray treatment); settings: 500 g/ha
Method: as §1
Maize leaf sections (Zea mays) are sprayed with an active compound preparation at the desired concentration and after drying treated with caterpillars of the fall army worm (Spodoptera frugiperda).
After the desired time the activity in % is determined. Here 100% means that all caterpillars were killed; 0% means that no caterpillars were killed.

Lucilia cuprina larvae = experiment: Fly larvae test; settings: 100 ppm
Method: 10 mg active compound were dissolved in 0.5 ml dimethylsulphoxide. To prepare a suitable formulation the active compound solution is diluted with water to the respective desired concentration.
About 20 Lucilia cuprina larvae are placed in a test tube that contains ca. 1 cm^3 horse flesh and 0.5 ml of the active compound preparation under test.
After the desired time the death rate in % is determined. Here 100% means that all larvae were killed; 0% means that no larvae were killed.

[5] = test system: eggs of the cotton boll worm (Heliotis virescens); experiment: Heliothis virescens test (spray treatment); settings: 500 g/ha, spray on soy bean leaves
Method: as §1
Soy bean leaves (Glycine max.) are sprayed with an active compound preparation at the desired concentration and after drying were infected with eggs of the cotton boll worm (Heliotis virescens).
After the desired time the activity in % is determined. Here 100% means that all eggs were killed; 0% means that no eggs were killed.

[6] = test system: green peach aphid (Myzus persicae); experiment: Myzus persicae test (hydroponic treatment); settings: pea plant; for activity after 7 days: 20 ppm
Method: To prepare a suitable active compound preparation 1 part by weight of the active compound is mixed with the given amount of solvent and emulsifier and the concentrate is diluted to the desired concentration with water.
The active compound preparation is mixed with water. The concentration given refers to the amount of active compound per unit volume water (mg/l=ppm). The treated water is placed into a vessel with one pea plant (Pisum sativum). After the prescribed time infection with the green peach aphid (Myzus persicae) is carried out.
After the desired time the death rate in % is determined. Here 100% means that all aphids were killed; 0% means that no aphids were killed.

[7] = test system: adult engorged females of Boophilus microplus (strain Parkhurst-SP resistant); experiment: Test with resistant monoxenous cattle ticks/SP-resistant Parkhurst strain, injection method; settings: 20 μg/animal injected into the abdomen
Method: 10 mg of the active compound are dissolved in 0.5 ml dimethylsulphoxide, lower concentrations are prepared by dilution with the same solvent.
The test is carried out five times. 1 μl is injected into the abdomen, the animals are transferred into dishes and stored in an air-conditioned room. The control of activity is carried out on a deposit of fertile eggs after 7 days. Eggs, the fertility of which was not visible externally, were stored in glass tubes in an incubator until larvae hatch after about 24 days. An activity of 100% means that no ticks laid fertile eggs.

[8] = test system: eggs of the diamond back moth (Plutella xylostella); experiment: Plutella test, artificial diet; settings: 1000 g/ha (so in the source), on artificial diet
Method: To prepare a suitable active compound preparation 1 part by weight active compound was mixed with the given amount of solvent and the concentrate was diluted to the desired concentration with methanol.
A given amount of active compound preparation at the desired concentration is pipetted onto a standardised amount of artificial diet. After the methanol has evaporated ca. 200-300 eggs of the diamond back moth (Plutella xylostella) are added to the diet.
After the desired time the death rate of the eggs and larvae, respectively, in % is determined. Here 100% means that all animals were killed; 0% means that no animals were killed.

[9] = test system: rice brown plant hopper (Nilaparvata lugens); experiment: Nilaparvata lugens test; hydroponic treatment (NILALU SYS); settings: 500 g/ha
Method: To prepare a suitable active compound preparation I part by weight of the active compound is mixed with the given amount of solvent and emulsifier and the concentrate is diluted to the desired concentration with water containing emulsifier.
The active compound preparation is pipetted into water. […] Infection is then carried out with rice brown plant hopper (Nilaparvata lugens).
After the desired time the activity in % is determined. Here 100% means that all plant hoppers were killed; 0% means that no plant hoppers were killed.

CN(Cc1ccc(Cl)nc1)C1=C(F)C(=O)OC1 [drawing 477]
pest or weed control at 500 g/ha [1]: 100%

O=C1C=C(N(Cc2ccc(C(F)(F)F)nc2)C2CC2)CO1 [Compound 126]
activity after 5 days [1]: 100%

O=C1C=C(N(Cc2ccc(Cl)nc2)C2CC2)CC1
pest or weed control at 500 g/ha [1]: 100%

O=C1C=C(N(Cc2ccc(F)nc2)C2CC2)CO1 [Compound 124]
activity after 5 days [1]: 100%

O=C1C=C(NCc2ccc(Cl)nc2)CO1 [drawing 475]
pest or weed control at 500 g/ha [1]: 90%

O=C1C=C(N(Cc2ccc(Cl)nc2)C2CC2)CO1 [drawing 486]
Death rate in % after 7 d [2]: 100%

CCN(Cc1ccc(Cl)nc1)C1=CC(=O)OC1 [drawing 473]
pest or weed control at 500 g/ha [1]: 90%

CC1OC(=O)C=C1N(C)Cc1ccc(Cl)nc1 (stereo not drawn)
pest or weed control at 500 g/ha [1]: 100%

Cn1c(NCc2ccc(Cl)nc2)cc(=O)n(C)c1=O [Compound 70]
activity after 5 days [1]: 100%

CN(Cc1ccc(Cl)cn1)C1=CC(=O)CC1
Death rate in % after 6 d [3]: 95%

O=C1C=C(NCc2ccc(Cl)nc2)CO1 [drawing 494]
Death rate in % after 6 d [3]: 98%

CCN(Cc1ccc(Cl)nc1)C1=CC(=O)OC1 [Compound 85]
Death rate in % after 7 d ([4]; spray on maize leaf sections, after 7 d): 100% | death rate after 2 days (Lucilia cuprina larvae): 100% | Death rate in % after 7 d [5]: 100%

C#CCN(Cc1ccc(Cl)nc1)C1=CC(=O)OC1 [Compound 92]
activity after 5 days [1]: 100%

C=CCN(Cc1ccc(Cl)nc1)C1=CC(=O)OC1 [drawing 487]
Death rate in % after 7 d [2]: 67%

C=CCN(Cc1ccc(Cl)nc1)C1=CC(=O)OC1 [Compound 91]
Death rate in % after 7 d ([6]; 20 g/ha (so in the source), after 7 d): 100%

CN(Cc1cccnc1)C1=CC(=O)OC1 [Compound 147]
activity after 5 days [1]: 100%

CN(Cc1ccc(Cl)nc1)C1=CC(=O)SC1 [drawing 483]
pest or weed control at 500 g/ha [1]: 80%

CN(Cc1ccc(Br)nc1)C1=CC(=O)OC1 [Compound 121]
activity after 7 days ([4]; spray, after 7 days): 100% | activity after 7 days [6]: 100% | activity (no fertile eggs laid) [7]: 95% | death rate after 2 days (Lucilia cuprina larvae): 100% | activity after 5 days [1]: 100%

C#CCN(Cc1ccc(Cl)nc1)C1=CC(=O)CCC1 [Compound 10]
activity after 5 days [1]: 100%

CN(Cc1cnc(Cl)s1)C1=CC(=O)OC1 [drawing 474]
pest or weed control at 500 g/ha [1]: 100%

O=C1C=C(N(Cc2ccc(Cl)nc2)C2CC2)CO1 [drawing 478]
pest or weed control at 500 g/ha [1]: 100%

CCN(Cc1ccc(Cl)nc1)C1=CC(=O)OC1 [drawing 485]
Death rate in % after 7 d [2]: 100%

CN(Cc1ccc(Cl)nc1)C1=CC(=O)CCC1
pest or weed control at 500 g/ha [1]: 90%

CN(Cc1cnc(Cl)s1)C1=CC(=O)OC1 [Compound 144]
Death rate in % after 7 d [5]: 99%

CN(Cc1ccc(Cl)nc1)C1=C(F)C(=O)OC1 [Compound 104]
death rate after 2 days (Lucilia cuprina larvae): 100%

C=CCN(Cc1ccc(Cl)nc1)C1=CC(=O)CCC1 [Compound 9]
activity after 5 days [1]: 100%

CN(Cc1ccc(Cl)nc1)C1=CC(=O)OC1 [drawing 472]
pest or weed control at 500 g/ha [1]: 100%

CC(=O)N(Cc1ccc(Cl)nc1)C1=CC(=O)OC1 [Compound 94]
activity after 5 days [1]: 100%

CON(Cc1ccc(Cl)nc1)C1=CC(=O)OC1 [Compound 98]
activity after 7 days [6]: 100% | death rate after 2 days (Lucilia cuprina larvae): 100% | activity after 5 days [1]: 100%

CN(Cc1ccc(Cl)nc1)C1=CC(=O)CC1 [drawing 481]
pest or weed control at 500 g/ha [1]: 100%

CN(Cc1ccc(Cl)nc1)C1=CC(=O)CC1 [Compound 175]
death rate after 2 days (Lucilia cuprina larvae): 100%

CN(Cc1ccc(Cl)nc1)C1=CC(=O)OC1 [drawing 484]
Death rate in % after 7 d [2]: 100%

CCCN(Cc1ccc(Cl)nc1)C1=CC(=O)CCC1 [Compound 4]
activity after 5 days [1]: 100%

CN(Cc1ccc(Cl)nc1)C1=CC(=O)SC1 [Compound 112]
Death rate in % after 7 d [8]: 100%

CN(Cc1ccc(Cl)nc1)C1=CC(=O)OC1 [drawing 493]
Death rate in % after 6 d [3]: 100%

C=CCN(Cc1ccc(Cl)nc1)C1=CC(=O)OC1 [drawing 479]
pest or weed control at 500 g/ha [1]: 100%

C=CCN(Cc1ccc(Cl)nc1)C1=CC(=O)OC1 [drawing 495]
Death rate in % after 6 d [3]: 95%

O=C1C=C(NCc2ccc(Cl)nc2)CCC1 [Compound 1]
activity after 7 days [9]: 100% | activity after 5 days [1]: 100%

CN(Cc1ccc(C(F)(F)F)nc1)C1=CC(=O)OC1 [Compound 125]
activity after 7 days [6]: 100% | activity (no fertile eggs laid) [7]: 80% | death rate after 2 days (Lucilia cuprina larvae): 90% | activity after 5 days [1]: 100%
